Source: article PMC5484114 (Marine Drugs, 2017)
Where a SMILES comes first, the peptide text is derived from it. Bridges are numbered along the chain shown (N, C = ends). Roman numbers before positions name the chains, in order.

What was measured:
[1] = molecular target: hα9α10 nAChR (Homo sapiens, UniProt Q9GZZ6+Q9UGM1); assay: cell-based; format: cell-based
[2] = tested on: hα4β2 nAChR; format: cell-based, human
[3] = tested on: hα3β2 nAChR; format: cell-based, human
[4] = tested on: nAChR subtypes; format: cell-based, human; rodent
[5] = tested on: hα7 nAChR; format: cell-based, human
[6] = tested on: hα3β4 nAChR; format: cell-based, human
[7] = tested on: hα4β4 nAChR; format: cell-based, human

Sequence of hα9α10 nAChR (Q9UGM1 26-479 limits assumed): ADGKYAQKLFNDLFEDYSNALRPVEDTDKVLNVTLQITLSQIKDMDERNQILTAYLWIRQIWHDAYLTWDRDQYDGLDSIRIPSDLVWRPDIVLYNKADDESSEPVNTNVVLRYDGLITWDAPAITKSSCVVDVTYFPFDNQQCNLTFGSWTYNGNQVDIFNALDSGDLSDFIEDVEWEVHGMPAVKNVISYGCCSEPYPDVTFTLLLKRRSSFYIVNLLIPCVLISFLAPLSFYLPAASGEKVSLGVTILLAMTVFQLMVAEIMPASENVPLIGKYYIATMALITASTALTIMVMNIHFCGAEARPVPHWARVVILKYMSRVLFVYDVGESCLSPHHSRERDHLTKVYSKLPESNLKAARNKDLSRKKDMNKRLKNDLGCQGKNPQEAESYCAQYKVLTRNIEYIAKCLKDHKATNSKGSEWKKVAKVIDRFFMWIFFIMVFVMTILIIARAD
Sequence of hα9α10 nAChR (Q9GZZ6 25-450 limits assumed): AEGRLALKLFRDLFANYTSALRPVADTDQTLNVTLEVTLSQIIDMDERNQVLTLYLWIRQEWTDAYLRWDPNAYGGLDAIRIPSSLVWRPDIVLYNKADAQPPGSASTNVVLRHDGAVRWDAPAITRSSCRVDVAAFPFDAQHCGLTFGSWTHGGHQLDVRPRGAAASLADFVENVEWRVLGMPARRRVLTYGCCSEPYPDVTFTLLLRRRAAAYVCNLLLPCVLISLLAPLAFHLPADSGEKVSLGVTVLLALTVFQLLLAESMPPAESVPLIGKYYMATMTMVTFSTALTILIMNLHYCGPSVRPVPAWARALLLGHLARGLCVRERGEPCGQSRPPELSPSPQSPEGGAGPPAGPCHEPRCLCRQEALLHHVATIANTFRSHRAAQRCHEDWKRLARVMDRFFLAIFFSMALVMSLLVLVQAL

| Compound | Hill Slope (nH) at hα9α10 [1] | reduction of ACh-evoked current amplitude at hα4β2 [2] | reduction of ACh-evoked current amplitude at hα3β2 [3] | nAChR subtype preference [4] | effect on ACh-evoked currents of hα7 [5] | effect on ACh-evoked currents of hα3β4 [6] | effect on ACh-evoked currents of hα4β4 [7] | IC50 [1] [µM] |
| --- | --- | --- | --- | --- | --- | --- | --- | --- |
| CC(C)C[C@H](NC(=O)[C@H](CO)NC(=O)[C@@H]1CSSC[C@H](NC(=O)[C@@H]2CCCN2C(=O)[C@H](CCCNC(=N)N)NC(=O)[C@H](Cc2c[nH]cn2)NC(=O)[C@@H](NC(=O)[C@@H](N)CC(=O)O)C(C)C)C(=O)N[C@@H](CCC(N)=O)C(=O)N[C@@H](CO)C(=O)N[C@@H](C(C)C)C(=O)N[C@@H](CCCNC(=N)N)C(=O)N2CCC[C@H]2C(=O)NCC(=O)N[C@@H](CCCNC(=N)N)C(=O)N[C@@H](C(C)C)C(=O)N[C@@H](Cc2c[nH]c3ccccc23)C(=O)NCC(=O)N[C@@H](CCCCN)C(=O)N[C@H](C(=O)N[C@@H](CO)C(=O)N[C@@H](CC(C)C)C(=O)O)CSSC[C@H](NC(=O)[C@@H]2CCCN2C(=O)[C@H](CCCNC(=N)N)NC(=O)[C@H](Cc2c[nH]cn2)NC(=O)[C@@H](NC(=O)[C@@H](N)CC(=O)O)C(C)C)C(=O)N[C@@H](CCC(N)=O)C(=O)N[C@@H](CO)C(=O)N[C@@H](C(C)C)C(=O)N[C@@H](CCCNC(=N)N)C(=O)N2CCC[C@H]2C(=O)NCC(=O)N[C@@H](CCCNC(=N)N)C(=O)N[C@@H](C(C)C)C(=O)N[C@@H](Cc2c[nH]c3ccccc23)C(=O)NCC(=O)N[C@@H](CCCCN)C(=O)N1)C(=O)O [NTD] (I: H-DVHRPCQSVRPGRVWGKCSL-OH / II: H-DVHRPCQSVRPGRVWGKCSL-OH; disulfide I:6-II:18, I:18-II:6) | −0.9 | approximately 50% | approximately 50% | prefers β2-containing rather than β4-containing nAChR subtypes | not markedly affected | not markedly affected | not markedly affected | – |
| CC(C)[C@@H]1NC(=O)[C@H](CCCNC(=N)N)NC(=O)CNC(=O)[C@@H]2CCCN2C(=O)[C@H](CCCNC(=N)N)NC(=O)[C@H](C(C)C)NC(=O)[C@H](CO)NC(=O)[C@H](CCC(N)=O)NC(=O)[C@@H](N)CSSC[C@@H](C(=O)O)NC(=O)[C@H](CCCCN)NC(=O)CNC(=O)[C@H](Cc2c[nH]c3ccccc23)NC(=O)[C@H](C(C)C)NC(=O)[C@H](CCCNC(=N)N)NC(=O)CNC(=O)[C@@H]2CCCN2C(=O)[C@H](CCCNC(=N)N)NC(=O)[C@H](C(C)C)NC(=O)[C@H](CO)NC(=O)[C@H](CCC(N)=O)NC(=O)[C@@H]2CCCN2C(=O)CNC(=O)[C@@H]2CCCN2C(=O)[C@H](CCCCN)NC(=O)CNC(=O)[C@H](Cc2c[nH]c3ccccc23)NC1=O [cNTD] (H-CQSVRPGRVWGKPGPQSVRPGRVWGKC-OH; disulfide 1-27) | – | – | – | – | – | – | – | 2.66 |
